# pIC50: −log10 of the molar value.
# Biological target: human recombinant H-PGDS (Homo sapiens, UniProt O60760)
# Assay: Fluorescence Intensity h-PGDS TBA Enzyme Assay
# Assay type: biochemical
# Conditions: 1:175,000 human recombinant H-PGDS, highest inhibitor concentration typically 1 μM
# Method in brief: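 Readout is PGH2 depletion: after a 42 s reaction with 5.0 μM PGH2 and 2.5 mM glutathione (pH 8.0 Tris, 10 min inhibitor preincubation), Fe(II) converts leftover PGH2 to MDA, which forms a fluorescent TBA complex. IC50s come from 11-point, 3-fold duplicate curves, 4-parameter fit.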
# Chain of human recombinant H-PGDS (O60760 whole entry): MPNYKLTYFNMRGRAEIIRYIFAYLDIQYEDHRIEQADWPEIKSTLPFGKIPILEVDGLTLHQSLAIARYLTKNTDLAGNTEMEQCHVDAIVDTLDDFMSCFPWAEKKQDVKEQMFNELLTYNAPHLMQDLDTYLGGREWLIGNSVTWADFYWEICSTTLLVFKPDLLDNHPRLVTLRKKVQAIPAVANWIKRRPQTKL
row,SMILES,pIC50
1,"Cc1cccc(-c2ccc(C(=O)NCC(C)O)cn2)c1 (centres unmarked) [Example 234, N-(2-Hydroxypropyl)-6-(3-methylphenyl)nicotinamide]",7.18
2,"CCC1CCN(CCNC(=O)c2ccc(-c3cccc(C)c3)nc2)CC1 [Example 235, N-[2-(4-Ethylpiperidin-1-yl)ethyl]-6-(3-methylphenyl)nicotinamide]",7.41
3,"Cc1cccc(-c2ccc(C(=O)NCC(=O)OCc3ccccc3)cn2)c1 [Example 236, Benzyl N-{[6-(3-methylphenyl)pyridin-3-yl]carbonyl}glycinate]",6.96
4,"Cc1cccc(-c2ccc(C(=O)NCC3CCCCO3)cn2)c1 (centres unmarked) [Example 239, 6-(3-Methylphenyl)-N-(tetrahydro-2H-pyran-2-ylmethyl)nicotinamide]",7.17
5,"Cc1cccc(-c2ccc(C(=O)NCCc3ccncc3)cn2)c1 [Example 240, 6-(3-Methylphenyl)-N-(2-pyridin-4-ylethyl)nicotinamide]",7.97
6,"COC(=O)CNC(=O)c1ccc(-c2cccc(C)c2)nc1 [Example 241, Methyl N-{[6-(3-methylphenyl)pyridin-3-yl]carbonyl}glycinate]",6.82
7,"Cc1cccc(-c2ccc(C(=O)NC(=O)[C@@H](N)C(C)C)cn2)c1 [Example 243, 6-(3-Methylphenyl)-N-L-valylnicotinamide]",6.91
8,"Cc1cccc(-c2ccc(C(=O)NCC(=O)N(C)C)cn2)c1 [Example 244, N-[2-(Dimethylamino)-2-oxoethyl]-6-(3-methylphenyl)nicotinamide]",6.64
9,"Cc1cccc(-c2ccc(C(=O)NCc3ccco3)cn2)c1 [Example 246, N-(2-Furylmethyl)-6-(3-methylphenyl)nicotinamide]",7.53
10,"Cc1cccc(-c2ccc(C(=O)NCc3ccc(S(C)(=O)=O)cc3)cn2)c1 [Example 247, 6-(3-Methylphenyl)-N-[4-(methylsulfonyl)benzyl] nicotinamide]",7.74
11,"Cc1cccc(-c2ccc(C(=O)NC(=O)CC(N)C3CC3)cn2)c1 (centres unmarked) [Example 248, N-(3-Amino-3-cyclopropylpropanoyl)-6-(3-methylphenyl)nicotinamide]",7.13
12,"Cc1cccc(-c2ccc(C(=O)NCCN3CCN(Cc4ccccc4)CC3)cn2)c1 [Example 249, N-[2-(4-Benzylpiperazin-1-yl)ethyl]-6-(3-methylphenyl)nicotinamide]",7.53
13,"Cc1ccc(CNC(=O)c2ccc(-c3cccc(C)c3)nc2)cc1 [Example 251, N-(4-Methylbenzyl)-6-(3-methylphenyl)nicotinamide]",6.98
14,"Cc1cccc(-c2ccc(C(=O)NC3CCOCC3)cn2)c1 [Example 252, 6-(3-Methylphenyl)-N-(tetrahydro-2H-pyran-4-yl)nicotinamide]",7.89
15,"Cc1cccc(-c2ccc(C(=O)NCCC3CCN(C)CC3)cn2)c1 [Example 253, 6-(3-Methylphenyl)-N-[2-(1-methylpiperidin-4-yl)ethyl]nicotinamide]",7.00
16,"CCOC(=O)CC(NC(=O)c1ccc(-c2cccc(C)c2)nc1)c1ccc(OC)cc1 (centres unmarked) [Example 255, Ethyl 3-(4-methoxyphenyl)-3-({[6-(3-methylphenyl)pyridin-3-yl]carbonyl}amino)propanoate]",7.41

row,SMILES,pIC50
1,"O=C(Nc1ccccc1)c1ccc(-c2ccc(F)cc2)nc1 [Example 256, 6-(4-Fluorophenyl)-N-phenylnicotinamide]",6.84
2,"CC(=O)N1CCC(CNC(=O)c2ccc(-c3ccc(F)cc3)nc2)CC1 [Example 257, N-[(1-Acetylpiperidin-4-yl)methyl]-6-(4-fluorophenyl)nicotinamide]",6.11
3,"Cc1ccc(CN2CCC(NC(=O)c3ccc(-c4ccc(F)cc4)nc3)C2=O)cc1 (centres unmarked) [Example 259, 6-(4-Fluorophenyl)-N-[1-(4-methylbenzyl)-2-oxopyrrolidin-3-yl]nicotinamide]",6.55
4,"CCOC(=O)C(CNC(=O)c1ccc(-c2ccc(F)cc2)nc1)C1CCCC1 (centres unmarked) [Example 260, Ethyl 2-cyclopentyl-3-({[6-(4-fluorophenyl)pyridin-3-yl]carbonyl}amino)propanoate]",6.50
5,"O=C(NCCCNc1ccccn1)c1ccc(-c2ccc(F)cc2)nc1 [Example 261, 6-(4-Fluorophenyl)-N-[3-(pyridin-2-ylamino)propyl]nicotinamide]",7.04
6,"CC(O)CNC(=O)c1ccc(-c2ccc(F)cc2)nc1 (centres unmarked) [Example 262, 6-(4-Fluorophenyl)-N-(2-hydroxypropyl)nicotinamide]",6.00
7,"COC(=O)CNC(=O)[C@H](C)NC(=O)c1ccc(-c2ccc(F)cc2)nc1 [Example 263, Methyl N-{[6-(4-fluorophenyl)pyridin-3-yl]carbonyl}-L-alanylglycinate]",6.08
8,"O=C(NCCc1ccncc1)c1ccc(-c2ccc(F)cc2)nc1 [Example 264, 6-(4-Fluorophenyl)-N-(2-pyridin-4-ylethyl)nicotinamide]",6.62
9,"CN(C)CC(C)(C)CNC(=O)c1ccc(-c2ccc(F)cc2)nc1 [Example 266, N-[3-(Dimethylamino)-2,2-dimethylpropyl]-6-(4-fluorophenyl)nicotinamide]",≤ 6.00
10,"O=C(NCc1ccc(C(F)(F)F)cc1)c1ccc(-c2ccc(F)cc2)nc1 [Example 267, 6-(4-Fluorophenyl)-N-[4-(trifluoromethyl)benzyl] nicotinamide]",≤ 6.00
11,"COC(=O)c1ccc(CNC(=O)c2ccc(-c3ccc(F)cc3)nc2)cc1 [Example 268, Methyl 4-[({[6-(4-fluorophenyl)pyridin-3-yl]carbonyl}amino)methyl benzoate]",6.54
12,"NC(CC(=O)NC(=O)c1ccc(-c2ccc(F)cc2)nc1)C1CC1 (centres unmarked) [Example 269, N-(3-Amino-3-cyclopropylpropanoyl)-6-(4-fluorophenyl)nicotinamide]",6.17
13,"CCOC(=O)CC(NC(=O)c1ccc(-c2cccc(OC)c2)nc1)c1ccccc1 (centres unmarked) [Example 272, Ethyl 3-({[6-(3-methoxyphenyl)pyridin-3-yl]carbonyl}amino)-3-phenylpropanoate]",6.32
14,"COc1cccc(-c2ccc(C(=O)NCc3ccc(OC)c(OC)c3)cn2)c1 [Example 275, N-(3,4-Dimethoxybenzyl)-6-(3-methoxyphenyl)nicotinamide]",6.75
15,"CCOC(=O)CC(NC(=O)c1ccc(-c2cccc(OC)c2)nc1)c1ccccc1Cl (centres unmarked) [Example 276, Ethyl 3-(2-chlorophenyl)-3-({[6-(3-methoxyphenyl)pyridin-3-yl]carbonyl}amino) propanoate]",6.60
16,"COc1cccc(-c2ccc(C(=O)NC(=O)CC(N)c3ccc(OC)c(OC)c3)cn2)c1 (centres unmarked) [Example 277, N-[3-Amino-3-(3,4-dimethoxyphenyl)propanoyl]-6-(3-methoxyphenyl) nicotinamide]",6.56

# More lines, in order of rising pIC50, values ahead:
row,pIC50,SMILES
1,6.15,"CCOC(=O)CC(NC(=O)c1ccc(-c2ccc(F)cc2)nc1)c1ccccc1 (centres unmarked) [Example 258, Ethyl 3-({[6-(4-fluorophenyl)pyridin-3-yl]carbonyl}amino)-3-phenylpropanoate]"
2,6.25,"COc1cccc(-c2ccc(C(=O)NCC3CCN(C(C)=O)CC3)cn2)c1 [Example 273, N-[(1-Acetylpiperidin-4-yl)methyl]-6-(3-methoxyphenyl)nicotinamide]"
3,6.30,"Cc1cccc(-c2ccc(C(=O)NCCN3CCCC3)cn2)c1 [Example 237, 6-(3-Methylphenyl)-N-(2-pyrrolidin-1-ylethyl)nicotinamide]"
4,6.52,"Cc1cccc(-c2ccc(C(=O)NCC(C)(C)CN(C)C)cn2)c1 [Example 242, N-[3-(Dimethylamino)-2,2-dimethylpropyl]-6-(3-methylphenyl)nicotinamide]"
5,6.66,"COc1cccc(-c2ccc(C(=O)NCCN3CCCCC3=O)cn2)c1 [Example 271, 6-(3-Methoxyphenyl)-N-[2-(2-oxopiperidin-1-yl)ethyl]nicotinamide]"
6,6.67,"O=C(NCCC1CCCCO1)c1ccc(-c2ccc(F)cc2)nc1 (centres unmarked) [Example 270, 6-(4-Fluorophenyl)-N-[2-(tetrahydro-2H-pyran-2-yl)ethyl]nicotinamide]"
7,6.82,"CC(NC(=O)c1ccc(-c2ccc(F)cc2)nc1)c1ccccc1 (centres unmarked) [Example 265, 6-(4-Fluorophenyl)-N-(1-phenylethyl)nicotinamide]"
8,6.86,"COC(C)(C)CNC(=O)c1ccc(-c2cccc(C)c2)nc1 [Example 232, N-(2-Methoxy-2-methylpropyl)-6-(3-methylphenyl)nicotinamide]"
9,6.97,"COc1cccc(-c2ccc(C(=O)NC3CCN(Cc4ccc(C)cc4)C3=O)cn2)c1 (centres unmarked) [Example 274, 6-(3-Methoxyphenyl)-N-[1-(4-methylbenzyl)-2-oxopyrrolidin-3-yl]nicotinamide]"
10,7.07,"Cc1cccc(-c2ccc(C(=O)NCCc3nc(C)no3)cn2)c1 [Example 233, N-[2-(3-Methyl-1,2,4-oxadiazol-5-yl)ethyl]-6-(3-methylphenyl)nicotinamide]"
11,7.13,"Cc1cccc(-c2ccc(C(=O)NC3CCOC3=O)cn2)c1 (centres unmarked) [Example 250, 6-(3-Methylphenyl)-N-(2-oxotetrahydrofuran-3-yl)nicotinamide]"
12,7.33,"COC(=O)CC(NC(=O)c1ccc(-c2cccc(C)c2)nc1)c1cccnc1 (centres unmarked) [Example 230, Methyl 3-({[6-(3-methylphenyl)pyridin-3-yl]carbonyl}amino)-3-pyridin-3-ylpropanoate]"
13,7.55,"Cc1cccc(-c2ccc(C(=O)NC(C)C)cn2)c1 [Example 254, N-Isopropyl-6-(3-methylphenyl)nicotinamide]"
14,7.94,"Cc1cccc(-c2ccc(C(=O)NCc3cccc(S(C)(=O)=O)c3)cn2)c1 [Example 245, 6-(3-Methylphenyl)-N-[3-(methylsulfonyl)benzyl] nicotinamide]"
15,8.10,"Cc1cccc(-c2ccc(C(=O)NCCCNc3ccccn3)cn2)c1 [Example 231, 6-(3-Methylphenyl)-N-[3-(pyridin-2-ylamino)propyl]nicotinamide]"

# Reference: patent publication US20110306597A1, “Nicotinamide Derivatives” (priority 2008, published 2011)
